Measured values taken from patent publication US20110071094A1, “(D)-ALLOSE INDUCING PROGRAMMED CELL DEATH IN HORMONE REFRACTORY PROSTATE CANCER LINES” (INDUSTRY-ACADEMIC COOPERATION FOUDATION, GYEONGSANG …, priority 2008, published 2011).

Legend:
Type in all cases: cell-based, human
[1] = tested on: DU145 cell line; experiment: Cell cycle analysis, PI staining, flow cytometry; conditions: for cells in G0-G1 phase: 48 h, untreated control 31.9%
Protocol: DU145 cell line (1×10^6 cells in triplicate culture plates) was treated with D-allose (0, 20 and 40 mM) for 48 and 72 h. The cells were treated with trypsin and harvested with PBS, centrifuged and resuspended the pellet in cold PBS-methanol mixture (1:9) for 1 h at 4° C. The cells were centrifuged, pellet washed and resuspended with PBS again, and incubated with RNAse (20 mg/ml in PBS) for 30 min at 37° C. The cells were chilled over ice and stained with PI (1 mg/ml in PBS) for 1 h and analyzed by flow cytometry using CellQuest software, version 3.0, performed on a FACSCalibur, fluorescence (FL2-A) detector equipped with 488 nm argon laser light source and 623 nm band pass filter (Becton Dickinson, San Jose, Calif., USA). Total 10,000 cells were acquired for analysis by CellQuest software and the quantification of FACS data was performed using ModFit LT software, version 2.0, (Becton Dickinson, San Jose, Calif., USA). The cell population was gated according to the characteristics side scatter and forward scatter intensities of FACS. The number of all gated living cells was taken as 100%, from which the percentage of cells in G0-G1, S and G2-M phase was calculated and presented in the right side of the histogram.

[2] = tested on: DU145 cell line; experiment: Cell viability / cell growth, MTT assay
Protocol: DU145 (human HRPC cell line, derived from a patient with brain metastasis) and PrEC (human normal prostate epithelial cell line) cell lines were obtained from Korea Cell Line Bank (KCLB, Seoul, South Korea). DU145 and PrEC cell lines were grown in triplicate culture plates containing RPMI-1640 (HyClone, Logan, Utah, USA) and Dulbecco's Modified Eagle's Medium (HyClone, Logan, Utah, USA) respectively, and kept in a humidified atmosphere containing 5% CO2 at 37° C. for 72 h. The media were supplemented with 10% heat-inactivated fetal bovine serum (HyClone, Logan, Utah, USA), 1% antibio-antimicotic solution containing 10,000 units/ml of penicillin and 10 mg/ml of streptomycin (HyClone, Logan, Utah, USA), HEPES, sodium bicarbonate, p-aminobenzoic acid and insulin (complete culture media). D-Allose was purchased from Sigma (St. Louis, Mo., USA) and dissolved at a concentration of 1 M in sterile phosphate-buffered saline (PBS), and was further sterilized by filtration. To examine the dose- and time-dependent effects, the cell lines (70-80% confluent) were treated with 0-40 mM of D-allose for up to 72 h, whereas without D-allose treated cell lines (0 mM) were considered as control. DU145 cell line was also treated with 0-40 mM of D-glucose. All the other chemicals used in the work were procured from Sigma (St. Louis, Mo., USA), unless otherwise specified.
The logarithmic growth phase of DU145 and PrEC cell lines were taken for growth assay using 3-[4,5-dimethylthiazol-2-yl]-2,5-diphenyl tetrazolium bromide (MTT). […] After incubation for the specified time at 37° C. in a humidified 5% CO2 incubator, cell viability was determined. […] To achieve solubilization of formazan crystal formed in viable cells, DMSO was added to each well, and the absorbance was recorded on a microplate reader at 595 nm wavelength. The effect of sugars on growth inhibition was assessed as percent cell viability where control cells were taken as 100% viable.

[3] = tested on: Bcl-2 mRNA; experiment: RT-PCR of Bcl-2 mRNA in DU145; conditions: DU145, 72 h, 0, 20 and 40 mM
Protocol: To identify the relative levels of expression of Bcl-2, Bax and Caspase 3 mRNAs after 0, 20 and 40 mM of D-allose treatments for 72 h, RT-PCR was performed. DU145 cell line (1×10^6 cells in triplicate culture plates) was harvested as mentioned above and total RNA was extracted using TRIzol reagent (Invitrogen, Carlsbad, Calif., USA) following a standard laboratory protocol. The RNA purity and concentrations were determined. Then 2 μg of total RNA was reversely transcribed to single-stranded cDNA using Oligo(dT)12-18 primer (Invitrogen, Carlsbad, Calif., USA) with M-MLV reverse transcriptase (Promega, Madison, Wis., USA). For PCR reaction, 4 μl of cDNA was reacted with 20 pmol each of the forward and reverse primers (Bioneer Corporation, Seoul, South Korea), and GoTaq® Green Master Mix […] containing PCR buffer, 25 mM magnesium chloride, 10 mM dNTP mix and Taq enzyme (Promega, Madison, Wis., USA), and amplified. […] The molecular sizes of the amplified products were determined by comparison with the molecular weight marker (100 by DNAladder; Promega, Madison, Wis., USA) run parallel with the PCR products. The densities of mRNA bands were analyzed by Molecular Analyst™, version 1.4.1 (Bio-Rad, Hercules, Calif., USA).

In the case of O=C[C@H](O)[C@H](O)[C@H](O)[C@H](O)CO [D-allose], the “cells in G0-G1 phase” value ([1]; DU145, 20 mM) is reported as 48.7%, the “cells in G0-G1 phase” value ([1]; DU145, 40 mM) is reported as 57.5% and the “cell number in G2-M phase and S phase” value ([1]; DU145, 48 h) is reported as “concomitant decrease”. For the same compound, the “cell growth (MTT assay)” value ([2]; DU145, 0-40 mM, compared to control) was “significant dose-dependent inhibition of cell growth”, the “time dependence of cell growth inhibition (MTT assay)” value ([2]; DU145, 24, 48 and 72 h) was “time-dependent inhibition of DU145 cell growth, which was more pronounced at 72 h post-treatment” and the “Bcl-2 mRNA expression” value [3] was “significantly reduced”.
